Like-named read-outs stand apart in the source and are kept apart here.
Tested on: human leukemic cells
Assay: Inhibition of cell proliferation (growth kinetics by cell counting) in culture
Settings: L-Dopa 10 µg/ml, read-out: inhibition in %, based on a control free of active agent
Excerpt: Every second day, the culture medium of each test batch was replaced by fresh medium and active agent.

Work on `N[C@@H](Cc1ccc(O)c(O)c1)C(=O)O` [L-Dopa, 3-hydroxy-L-tyrosine] yielded an inhibition at 10 µg/mL (72 Hrs.) of 18% and an inhibition at 10 µg/mL (144 Hrs.) of 58%.
